{"source": "paper PMC2769999", "about": "(Biochemistry, 2009)", "molecular_target": "T1, V331C LacY (lactose permease), MIANS- or DACM-labelled (Escherichia coli, UniProt P02920, E325Q/K319L/V331C)", "T1 sequence (P02920 1-417 K319L/E325Q/V331C)": "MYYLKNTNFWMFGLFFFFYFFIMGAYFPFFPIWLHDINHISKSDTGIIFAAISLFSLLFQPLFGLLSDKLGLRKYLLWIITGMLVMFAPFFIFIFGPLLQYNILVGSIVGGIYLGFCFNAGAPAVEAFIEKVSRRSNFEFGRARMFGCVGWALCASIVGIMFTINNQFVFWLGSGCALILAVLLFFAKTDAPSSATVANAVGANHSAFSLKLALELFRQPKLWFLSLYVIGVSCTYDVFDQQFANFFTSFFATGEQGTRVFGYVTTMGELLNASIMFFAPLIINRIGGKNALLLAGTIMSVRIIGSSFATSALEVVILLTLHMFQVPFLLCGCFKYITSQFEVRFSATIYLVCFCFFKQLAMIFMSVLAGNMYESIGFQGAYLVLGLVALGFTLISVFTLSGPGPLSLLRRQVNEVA", "assay": "stopped-flow Trp to NPG FRET, kobs vs NPG", "type": "binding"}
{"smiles": "O=[N+]([O-])c1ccc(O[C@H]2O[C@H](CO)[C@H](O)[C@H](O)[C@H]2O)cc1", "note": "[NPG, 4-nitrophenyl α-D-galactopyranoside]", "values": [{"measurement": "Kd", "value": 8.3, "unit": "µM"}]}
